In patent US6566361B2, “Azapirone pain treatment” (priority 1999, dated 2003):

Legend:
[1] = tested on: mouse; assay: Mouse hot plate test (Eddy et al.); format: in vivo; details: buspirone to acetaminophen weight ratios of 1:3, 1:10, and 1:30
[2] = acute high doses; cited from earlier work
[3] = in vivo; cited from earlier work
[4] = in vivo; cited from earlier work; remark: listed apart in the source
[5] = tested on: albino rats; assay: Preclinical model of chronic pain (rat formalin test, phase II flinches); format: in vivo; details: single ip delivery: morphine 4 mg/kg, buspirone 3 mg/kg, acetaminophen 300 mg/kg
Method: To assess responses to a chronic stimulus (subcutaneous formalin injection), animals are first placed in clear observation boxes for a 30 min acclimation period prior to testing. Animals are subsequently removed and the dorsum of one hindpaw is injected s.c. with 50 microliters of 2.5% formalin. […] The total number of flinches is computer scored during the chronic phase (10-90 min after formalin) using a commercially available device (George Ozaki, Automated Nocicpetion Analyzer, Department of Anesthesiology, University of California, San Diego; La Jolla, Calif.) which automates the manual procedure described previously by Wheeler-Aceto et al. (Pain 40:229-238, 1990). All drugs are delivered at 30 min prior to formalin injection by the intraperitoneal (i.p.) route in a volume of 2 ml/kg. […] For acetaminophen (Sigma, A7085) the vehicle was 40% polyethylene glycol 400 (PEG-400), 10% EtOH, 15% Tween 80, and 35% deionized H2O (PETW). Acetaminophen was disolved sequentially in two parts: 1) first into a solution of 80% PEG 400+20% EtOH, and 2) then slowly added to it was an equal volume of 30% Tween 80+70% deionized H2O (sonicated as needed). Each animal received two injections at time zero. Specifically, animals were tested in one of the following 5 treatment conditions (abbreviations used in figures are shown under ‘Key” below): […]

[6] = tested on: rats; assay: Preclinical model of neuropathic pain (Chung spinal nerve L5/L6 ligation, von Frey test); format: in vivo, rat; details: buspirone 3 mg/kg ip; acetaminophen 200 mg/kg ip; or both coadministered
Excerpt: J Neurosci Methods. […] For acetaminophen (Sigma, A7085) the vehicle was 40% polyethylene glycol 400 (PEG-400), 10% EtOH, 15% Tween 80, and 35% deionized H2O (PETW). Acetaminophen was disolved sequentially in two parts: 1) first into a solution of 80% PEG 400+20% EtOH, and 2) then slowly added to it was an equal volume of 30% Tween 80+70% deionized H2O (sonicated as needed). Each animal received two injections at time zero.

[7] = tested on: albino rats; assay: Rat hindpaw withdrawal (thermal escape) test for analgesia (acute pain); format: in vivo; details: for Thermal escape latencies vs vehicle, single administration: tandospirone 5 mg/kg ip alone, acetaminophen 300 mg/kg ip alone; for Hindpaw thermal escape latency from 30 min to 120 min: ipsapirone 20 mg/kg ip, acetaminophen 300 mg/kg ip, or both coadministered, vs vehicle
Excerpt: To assess the thermally evoked paw-withdrawal response, a commercially available device was used. Specifics of device construction and operation have been published previously (Dirig D M, Salami A, Rathbun M L, Ozaki G T, Yaksh T L. Characterization of variables defining hindpaw withdrawal latency evoked by radiant thermal stimuli. J Neurosci Methods. Oct. 3, 1997; 76(2):183-91). This device is comprised of a glass surface on which the rats were placed individually in Plexiglas cubicles (9×22×25 cm). The surface is maintained at 30° C. by a feedback-controlled, under-glass, forced-air heating system. The thermal nociceptive stimulus originates from a projection bulb below the glass that can be manipulated in a two-dimensional axis on ball bearing slides. This apparatus allows the stimulus to be delivered separately to each hind paw with the aid of an angled mirror mounted on the stimulus source. A timer is actuated with the light source, and escape latency is defined as the time between stimulus onset and the display of a brisk paw withdrawal (detected by photodiode motion sensors that stops the timer and terminates the stimulus; cut-off time for a non-response is 20 sec which triggers automatic termination of the stimulus). In the present study, animals are placed in test boxes for 30 min acclimation and then baseline escape latency is assessed separately for each hindpaw (left and right) at −15 min. All drugs are delivered at 0 min by the intraperitoneal (i.p.) route in a volume of 3 ml/kg. […] For acetaminophen (Sigma, A7085) the vehicle was 40% polyethylene glycol 400 (PEG-400), 10% EtOH, 15% Tween 80, and 35% deionized H2O (PETW). Acetaminophen was disolved sequentially in two parts: 1) first into a solution of 80% PEG 400+20% EtOH, and 2) then slowly added to it was an equal volume of 30% Tween 80+70% deionized H2O (sonicated as needed). Other azapirone vehicles were Gepirone (saline), ipsapirone (deionized H2O), and tandospirone (DMA+PETW), DMA=5% dimethylacetamide. Each animal received two injections at time zero. Specifically, animals were tested in one of the following 10 treatment conditions (abbreviations used in figures are shown under ‘Key” below):
Following drug administration, thermal escape latencies are measured at regular intervals (e.g., 15, 30, 60, 90 and 120 min, mean of both paws is used for statistical analysis).

[8] = Rat plasma concentrations of buspirone and APAP over time; format: in vivo
Excerpt: It also has agonistic action at presynaptic D2 dopaminergic receptors. Acetaminophen is believed to act by elevating the pain threshold in patients.

Molecule	Formalin-induced flinches relative to vehicle [5]	von Frey thresholds, injured side (neuropathic pain responses) [6]	Thermal escape latencies vs vehicle, single administration [7]	Hindpaw thermal escape latency from 30 min to 120 min [7]	other results
8-[4-[4-(2-pyrimidinyl)1-piperazinyl]butyl-8-azaspiro(4,5)-decane-7,9-dione [buspirone]	significantly suppressed	not significantly different from vehicle			Potentiation of acetaminophen in hot plate test [1]: demonstrated potentiation of acetaminophen; Relief of neuropathic pain [2]: did not relieve neuropathic pain; Effect on xylazine-induced antinociception [3]: attenuate xylazine-induced antinociception; Type of analgesia produced [4]: non-opioid type of analgesia
CN1CC[C@]23c4c5ccc(O)c4O[C@H]2[C@@H](O)C=C[C@H]3[C@H]1C5 [morphine]	significantly suppressed				
O=C1[C@@H]2[C@H]3CC[C@H](C3)[C@@H]2C(=O)N1CCCCN1CCN(c2ncccn2)CC1 [tandospirone]			did not differ from vehicle until 90 min after injection		
O=C1c2ccccc2S(=O)(=O)N1CCCCN1CCN(c2ncccn2)CC1 [ipsapirone]				a comparably high level of analgesia was not consistently attached throughout this same time period	
CC(=O)Nc1ccc(O)cc1 [acetaminophen]	significantly suppressed	partial reversal toward normal at 30-120 min	did not differ from vehicle until 90 min after injection	a comparably high level of analgesia was not consistently attached throughout this same time period	Hindpaw thermal escape response, Area Under the Curve (AUC) from thermal escape latencies (sec) over 120 min post injection ([7]; acetaminophen 300 mg/kg ip, compared to vehicle): elevated significantly above vehicle; Plasma concentrations over time, alone vs in combination [8]: do not differ significantly whether given alone or in combination
